Assay results taken from patent US20080021002A1, “VITAMIN D COMPOUNDS USED TO STABILIZE KIDNEY TRANSPLANTS” (priority 2000, published 2008).

Columns and labels:
[1] = system: MMP 9 mRNA; assay: Semi-quantitative RT-PCR of renal grafts, MMP 9 mRNA; format: in vivo, rat; conditions: all groups vs syngeneic untreated controls, regardless of treatment
Experimental: FIG. 5 is a set of graphs showing that 1,25-(OH)2D3 Treatment Alters MMP and TIMP Expression . […] S26 was used as the housekeeping gene. […]
(§1) Semi-quantitative Reverse transcription polymerace chain reaction (RT-PCR): Following graft harvest a […] containing both cortex and medulla was snap frozen in liquid nitrogen. Semi-quantitative RT-PCR was performed as described. Little et al. Transplant Int. 12:393-401, 1999. Briefly, samples were homogenized then total RNA extracted with RNAzol B (Tel Test, Inc., Friendswood, Tex.) and reversed transcribed to cDNA according to manufacturer=s instructions (Superscript, Gibco BRL). PCR was performed over the linear range of amplification for both the gene of interest, e.g. TGFβ-1, and the ribosomal protein S26 as a control housekeeping gene. PCR conditions were chosen such that both products were amplified with similar efficiency. The following cycle parameters were employed: denaturing, 94° C. for 60 seconds; annealing, 61° C. for 60 seconds; and extension, 72° C. for 60 seconds. The amount of product was quantified using a phosphoimager (Storm 80) following gel electrophoresis and Vista green detection.

[2] = system: kidney or kidney-pancreas transplant recipients; conditions: human, in vivo
From the text: Methodology-retrospective analysis: The University of Wisconsin transplant database was screened to identify any kidney and/or kidney-pancreas transplant recipient who received 1,25-dihydroxyvitamin D3 (calcitriol)peri-post-transplant. Clinical and demographic variables were abstracted from the database. Those patients with adequate follow-up data were included in the analysis (≧1year follow-up data following the initiation of calcitriol). Demographic variables included race, age, and nay history of parathyroidectomy as these patients would likely be receiving calcitriol at time of transplantation. The effect of calcitriol treatment on renal function was analyzed using general linear mixed modeling of the change in slope of renal function prior to and following the start of calcitriol therapy. […] Adverse events and hypercalcemia were noted by identifiers in the database and by serum calcium levels as recorded in the database. Hypercalcemia was defined as a serum calcium >10.5 mg/dl.
The mean serum calcium in Group 1 and Group 2 patients was <10 mg/dl (9.6±0.9 mg/dl). There were no episodes of sustained hypercalcemia (>2 serial hypercalcemia values noted) or hypercalcemia events requiring hospitalization. There were no episodes of substained hematuria that could be directly attributable to hypercalcemia.

[3] = system: Smad 7 protein; assay: Western blot of renal graft lysates, Smad 7 protein; format: in vivo, rat; conditions: allogeneic grafts vs untreated allogeneic grafts (FIG. 4B)
From the text: Renal lysates were subjected to SDS-PAGE and transferred to nitrocellulose membranes. The membranes were probed with specific anti-Smad antibodies and appropriated HRP-conjugated secondary antibodies. Signal was detected with chemilumensnce. Following exposure, x-ray films were scanned and the amount of expression compared to that of tubulin as an internal control using Scion Image software. FIG. 4 (A) describes R-Smad expression. FIG. 4 (B) described I-Smad expression.
Western Blot Analysis: A portion of the snap frozen graft containing both cortex and medulla was ground with a mortar and pestle. For each 100 mg of tissue, the sample was resuspened in 400 ul of lysis buffer (10 mM Tris base, 150 mM NaCl, pH 8.0) containing protease inhibitors (P2714 1:1000. Sigma Chemical Co., St. Louis, Mo.) and homogenized (PowerGen 125, 1 minute). Triton X100 was then added to 1% and the sample place on ice, for 30 minutes. The solubilized sample was then spun at 4° C. for 15 minutes at 15,000×G. The supernatant was collected and stored at −80° C. Sample protein concentrations were determined using the Micro BCA assay (Pierce Chemical Co., Rockford, Ill.) according to manufacturer=s instructions, except that the assay was performed in half area plates combining 35 μl sample with 70 µl of reagent. […]

[4] = system: Smad 2 mRNA; assay: Semi-quantitative RT-PCR of renal grafts, Smad 2 mRNA; format: in vivo, rat; conditions: vs controls
Experimental: as §1

[5] = system: Smad 7 mRNA; assay: Semi-quantitative RT-PCR of renal grafts, Smad 7 mRNA; format: in vivo, rat; conditions: vs controls
Experimental: as §1

[6] = system: TIMP 1 mRNA; assay: Semi-quantitative RT-PCR of renal grafts, TIMP 1 mRNA; format: in vivo, rat; conditions: all groups vs untreated allograft recipients, regardless of treatment
Experimental: FIG. 5 is a set of graphs showing that 1,25-(OH)2D3 Treatment Alters MMP and TIMP Expression . […] S26 was used as the housekeeping gene. […] Fold changes are expressed relative to the allogeneic untreated control.
as §1

`C=C1/C(=C\C=C2/CCC[C@]3(C)[C@@H]([C@H](C)CCCC(C)(C)O)CC[C@@H]23)C[C@@H](O)C[C@@H]1O` [calcitriol, 1,25-dihydroxyvitamin D3] was tested, and the “MMP 9 mRNA” value [1] was “increased”, the “Episodes of sustained hematuria attributable to hypercalcemia” value [2] was “no episodes” and the “Increase in Smad 7 protein levels” value [3] was 4,3 fold. The “Smad 2 mRNA levels” value [4] was “no significant change”, the “Smad 7 mRNA levels” value [5] was “no significant change” and the “TIMP 1 mRNA expression” value [6] was “decreased”.
